Measured values published in the supplement of paper PMC10307832.

Experiments:
Assay in all cases: relative viability (nuclei count vs DMSO), 5 days (fraction); higher = more cells survive
Bortezomib + Palbociclib = compound: CC(C)C[C@H](NC(=O)[C@H](Cc1ccccc1)NC(=O)c1cnccn1)B(O)O [Bortezomib] + CC(=O)c1c(C)c2cnc(Nc3ccc(N4CCNCC4)cn3)nc2n(C2CCCC2)c1=O [Palbociclib] (partner 0.5 µM)
Outline: (§1)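 Five library-drug doses in √10 steps were combined with a fixed anchor-drug dose, or a single drug was given alone, by pin tool to lung cancer cell lines in 1536-well plates the day after seeding. Nuclei were stained and counted after 5 days. Relative viability is the nuclei count in treated wells over that in vehicle wells, taken as the median of duplicate plates.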

[1] = compound: CC1=CC(=NN1)NC2=CC(=NC(=N2)/C=C/C3=CC=CC=C3)N4CCN(CC4)C + C[C@@H](Oc1cc(-c2cnn(C3CCNCC3)c2)cnc1N)c1c(Cl)ccc(F)c1Cl [Crizotinib] (partner 1 µM)
Outline: as §1

[2] = compound: CC1=CC(=NN1)NC2=CC(=NC(=N2)/C=C/C3=CC=CC=C3)N4CCN(CC4)C + C[C@]1(O)C[C@@H](c2nc(-c3ccc4ccc(-c5ccccc5)nc4c3)c3c(N)nccn32)C1 [Linsitinib] (partner 1 µM)
Outline: as §1

Obatoclax + Palbociclib = compound: COC1=CC(c2cc3ccccc3[nH]2)=N/C1=C\c1[nH]c(C)cc1C [Obatoclax] + CC(=O)c1c(C)c2cnc(Nc3ccc(N4CCNCC4)cn3)nc2n(C2CCCC2)c1=O [Palbociclib] (partner 0.5 µM)
Outline: as §1

Cell Line | relative viability (Bortezomib + Palbociclib; first compound 0.0002 µM) | relative viability (Bortezomib + Palbociclib; first compound 0.000632 µM) | relative viability (Bortezomib + Palbociclib; first compound 0.002 µM) | relative viability (Bortezomib + Palbociclib; first compound 0.006325 µM) | relative viability (Bortezomib + Palbociclib; first compound 0.02 µM) | relative viability ([1]; first compound 0.08 µM) | relative viability ([1]; first compound 0.253 µM) | relative viability ([1]; first compound 0.8 µM) | relative viability ([1]; first compound 2.53 µM) | relative viability ([1]; first compound 8 µM) | relative viability ([2]; first compound 0.08 µM) | relative viability ([2]; first compound 0.253 µM) | relative viability ([2]; first compound 0.8 µM) | relative viability ([2]; first compound 2.53 µM) | relative viability ([2]; first compound 8 µM) | relative viability (Obatoclax + Palbociclib; first compound 0.01 µM) | relative viability (Obatoclax + Palbociclib; first compound 0.03162 µM) | relative viability (Obatoclax + Palbociclib; first compound 0.1 µM) | relative viability (Obatoclax + Palbociclib; first compound 0.3162 µM) | relative viability (Obatoclax + Palbociclib; first compound 1 µM)
NCI-H3122 | 0.197 | 0.204 | 0.205 | 0.135 | 0.102 | 0.285 | 0.318 | 0.253 | 0.268 | 0.168 | 1.01 | 0.944 | 0.999 | 0.884 | 0.77 | 0.185 | 0.185 | 0.277 | 0.224 | 0.179
PC-3 [JPC-3] | 0.521 | 0.583 | 0.413 | 0.285 | 0.227 | 0.931 | 1 | 0.917 | 0.878 | 0.74 | 1.01 | 1.02 | 0.918 | 0.95 | 0.814 | 0.497 | 0.515 | 0.503 | 0.406 | 0.33
PC-14 | 0.53 | 0.506 | 0.412 | 0.045 | 0.052 | 0.831 | 1 | 0.872 | 0.494 | 0.0811 | 0.906 | 1.01 | 0.892 | 0.77 | 0.107 | 0.453 | 0.489 | 0.411 | 0.0534 | 0.055
RERF-LC-KJ | 1.18 | 1.03 | 1.05 | 0.224 | 0.19 | 0.832 | 0.82 | 0.747 | 0.617 | 0.234 | 0.817 | 0.863 | 0.792 | 0.604 | 0.216 | 0.909 | 1.06 | 1.09 | 0.957 | 0.892
SK-LU-1 | 0.387 | 0.361 | 0.359 | 0.279 | 0.158 | 1.01 | 0.792 | 0.725 | 0.274 | 0.137 | 0.93 | 1.18 | 0.84 | 0.238 | 0.142 | 0.367 | 0.419 | 0.352 | 0.326 | 0.317
SK-MES-1 | 0.317 | 0.321 | 0.296 | 0.159 | 0.179 | 0.96 | 1.01 | 0.903 | 0.422 | 0.133 | 1.06 | 1.04 | 0.939 | 0.796 | 0.146 | 0.295 | 0.329 | 0.247 | 0.181 | 0.203
SW 1573 | 0.346 | 0.419 | 0.171 | 0.055 | 0.0399 | 0.886 | 0.829 | 0.604 | 0.194 | 0.1 | 0.737 | 0.78 | 0.607 | 0.502 | 0.124 | 0.379 | 0.35 | 0.298 | 0.118 | 0.133
UMC-11 | 0.3 | 0.334 | 0.294 | 0.295 | 0.214 | 0.519 | 0.528 | 0.41 | 0.0737 | 0.062 | 0.937 | 1.03 | 0.934 | 0.508 | 0.133 | 0.373 | 0.346 | 0.33 | 0.322 | 0.373
